Laboratory results: ChEMBL document CHEMBL6074667, “Discovery and Optimization of First-in-Class Molecular Glue Degraders of the WIZ Transcription Factor for Fetal Hemoglobin Induction to Treat Sickle Cell Disease” (J Med Chem, 2024)
≈ marks a conversion by molar mass, not a printed value. Calls of active or inactive are those of the source. The calls are words filed in the database; no cut-off is given here.

How the values were obtained:
[1] = biological target: T1, Protein cereblon/Protein Wiz (Homo sapiens, UniProt Q96SW2+O95785); experiment: Molecular glue activity at CRBN/HiBiT-tagged WIZ (unknown origin) expressed in HEK293T cells assessed as induction of WIZ degradation incubated for 18 hrs by Nano-Glo HiBiT-Lytic reagent based luminescence plate reader analysis relative to control; format: cell-based; parameters: concentration or dose not given beside the values
Target sequence in this assay (O95785 whole entry, looked up): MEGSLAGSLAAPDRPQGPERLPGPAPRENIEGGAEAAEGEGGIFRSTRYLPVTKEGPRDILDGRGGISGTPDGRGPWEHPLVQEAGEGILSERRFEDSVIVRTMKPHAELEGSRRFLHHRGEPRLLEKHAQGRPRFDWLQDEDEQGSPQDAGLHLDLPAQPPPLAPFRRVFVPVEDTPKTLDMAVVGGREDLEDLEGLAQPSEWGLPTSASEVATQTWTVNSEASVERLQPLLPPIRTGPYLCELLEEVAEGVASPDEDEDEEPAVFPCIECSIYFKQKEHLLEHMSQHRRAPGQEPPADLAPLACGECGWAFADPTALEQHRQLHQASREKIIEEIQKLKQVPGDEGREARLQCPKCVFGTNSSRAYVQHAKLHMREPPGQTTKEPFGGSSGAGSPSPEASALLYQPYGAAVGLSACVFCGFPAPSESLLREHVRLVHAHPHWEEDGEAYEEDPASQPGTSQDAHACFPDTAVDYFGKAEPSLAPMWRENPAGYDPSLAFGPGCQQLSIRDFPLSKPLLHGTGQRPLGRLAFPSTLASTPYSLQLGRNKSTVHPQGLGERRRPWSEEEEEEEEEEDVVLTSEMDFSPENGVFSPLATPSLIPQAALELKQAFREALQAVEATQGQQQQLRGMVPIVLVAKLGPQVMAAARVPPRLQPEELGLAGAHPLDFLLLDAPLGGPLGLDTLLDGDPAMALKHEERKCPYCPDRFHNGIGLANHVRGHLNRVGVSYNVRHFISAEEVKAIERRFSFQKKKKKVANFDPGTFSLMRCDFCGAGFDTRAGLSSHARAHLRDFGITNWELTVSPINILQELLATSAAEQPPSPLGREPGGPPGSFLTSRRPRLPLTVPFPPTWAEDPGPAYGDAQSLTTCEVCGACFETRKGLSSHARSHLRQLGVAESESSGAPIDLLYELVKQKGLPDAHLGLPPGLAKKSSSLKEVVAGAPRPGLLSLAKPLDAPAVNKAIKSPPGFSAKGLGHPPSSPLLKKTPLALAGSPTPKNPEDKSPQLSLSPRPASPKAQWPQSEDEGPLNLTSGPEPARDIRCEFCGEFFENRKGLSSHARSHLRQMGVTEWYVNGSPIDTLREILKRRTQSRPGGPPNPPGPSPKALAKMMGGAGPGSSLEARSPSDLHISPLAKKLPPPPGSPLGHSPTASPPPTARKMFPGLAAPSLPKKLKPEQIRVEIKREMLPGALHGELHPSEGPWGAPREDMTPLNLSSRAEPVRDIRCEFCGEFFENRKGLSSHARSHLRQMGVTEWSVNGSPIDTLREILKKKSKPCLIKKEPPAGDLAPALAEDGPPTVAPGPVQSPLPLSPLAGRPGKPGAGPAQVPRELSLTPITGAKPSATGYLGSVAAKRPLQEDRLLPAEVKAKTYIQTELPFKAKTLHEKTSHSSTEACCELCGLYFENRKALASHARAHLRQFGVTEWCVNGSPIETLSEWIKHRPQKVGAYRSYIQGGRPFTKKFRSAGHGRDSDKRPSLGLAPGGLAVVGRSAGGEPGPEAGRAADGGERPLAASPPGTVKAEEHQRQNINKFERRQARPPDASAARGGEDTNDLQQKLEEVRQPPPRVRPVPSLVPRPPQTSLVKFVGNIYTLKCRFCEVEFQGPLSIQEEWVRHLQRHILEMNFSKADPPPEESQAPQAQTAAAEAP
Target sequence in this assay (Q96SW2 whole entry, looked up): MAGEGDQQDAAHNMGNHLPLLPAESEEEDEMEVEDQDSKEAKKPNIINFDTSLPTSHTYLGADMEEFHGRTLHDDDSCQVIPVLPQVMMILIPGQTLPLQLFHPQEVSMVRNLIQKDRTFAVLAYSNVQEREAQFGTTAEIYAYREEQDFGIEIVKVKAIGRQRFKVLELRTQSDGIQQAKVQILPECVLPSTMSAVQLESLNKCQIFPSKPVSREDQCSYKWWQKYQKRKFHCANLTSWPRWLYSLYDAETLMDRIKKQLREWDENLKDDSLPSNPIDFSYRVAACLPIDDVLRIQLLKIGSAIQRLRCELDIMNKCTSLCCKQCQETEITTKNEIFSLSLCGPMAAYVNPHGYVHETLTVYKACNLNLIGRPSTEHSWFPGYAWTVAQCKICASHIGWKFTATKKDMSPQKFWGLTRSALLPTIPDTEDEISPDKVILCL

[2] = biological target: T2, Protein cereblon/Sal-like protein 4 (Homo sapiens, UniProt Q96SW2+Q9UJQ4); experiment: Molecular glue activity at CRBN/HiBiT-tagged SALL4 (unknown origin) expressed in human GripTite 293 MSR cells assessed as induction of SALL4 degradation incubated for 20 hrs by Nano-Glo HiBiT-Lytic reagent based luminescence plate reader analysis relative to control; format: cell-based; parameters: concentration or dose not given beside the values
Cereblon/Ikaros [3] = biological target: T3, Cereblon/Ikaros (Homo sapiens, UniProt Q96SW2+Q13422); experiment: Molecular glue activity at CRBN/HiBiT-tagged IKZF1 (unknown origin) expressed in human GripTite 293 MSR cells assessed as induction of […] incubated for 20 hrs by Nano-Glo HiBiT-Lytic reagent based luminescence plate reader analysis relative to control; format: cell-based; parameters: concentration or dose not given beside the values
[4] = biological target: T4, Protein cereblon/Eukaryotic peptide chain release factor GTP-binding subunit ERF3A (Homo sapiens, UniProt Q96SW2+P15170); experiment: Molecular glue activity at CRBN/HiBiT-tagged GSPT1 (unknown origin) expressed in human GripTite 293 MSR cells assessed as induction of GSPT1 degradation incubated for 20 hrs by Nano-Glo HiBiT-Lytic reagent based luminescence plate reader analysis relative to control; format: cell-based; parameters: concentration or dose not given beside the values
[5] = biological target: T2, Protein cereblon/Sal-like protein 4; experiment: Molecular glue activity at CRBN/HiBiT-tagged SALL4 (unknown origin) expressed in human GripTite 293 MSR cells assessed as induction of SALL4 degradation incubated for 20 hrs by Nano-Glo HiBiT-Lytic reagent based luminescence plate reader analysis; format: cell-based
Target sequence in this assay (Q96SW2 whole entry): as the sequence (Q96SW2 whole entry, looked up) above
Target sequence in this assay (Q9UJQ4 whole entry): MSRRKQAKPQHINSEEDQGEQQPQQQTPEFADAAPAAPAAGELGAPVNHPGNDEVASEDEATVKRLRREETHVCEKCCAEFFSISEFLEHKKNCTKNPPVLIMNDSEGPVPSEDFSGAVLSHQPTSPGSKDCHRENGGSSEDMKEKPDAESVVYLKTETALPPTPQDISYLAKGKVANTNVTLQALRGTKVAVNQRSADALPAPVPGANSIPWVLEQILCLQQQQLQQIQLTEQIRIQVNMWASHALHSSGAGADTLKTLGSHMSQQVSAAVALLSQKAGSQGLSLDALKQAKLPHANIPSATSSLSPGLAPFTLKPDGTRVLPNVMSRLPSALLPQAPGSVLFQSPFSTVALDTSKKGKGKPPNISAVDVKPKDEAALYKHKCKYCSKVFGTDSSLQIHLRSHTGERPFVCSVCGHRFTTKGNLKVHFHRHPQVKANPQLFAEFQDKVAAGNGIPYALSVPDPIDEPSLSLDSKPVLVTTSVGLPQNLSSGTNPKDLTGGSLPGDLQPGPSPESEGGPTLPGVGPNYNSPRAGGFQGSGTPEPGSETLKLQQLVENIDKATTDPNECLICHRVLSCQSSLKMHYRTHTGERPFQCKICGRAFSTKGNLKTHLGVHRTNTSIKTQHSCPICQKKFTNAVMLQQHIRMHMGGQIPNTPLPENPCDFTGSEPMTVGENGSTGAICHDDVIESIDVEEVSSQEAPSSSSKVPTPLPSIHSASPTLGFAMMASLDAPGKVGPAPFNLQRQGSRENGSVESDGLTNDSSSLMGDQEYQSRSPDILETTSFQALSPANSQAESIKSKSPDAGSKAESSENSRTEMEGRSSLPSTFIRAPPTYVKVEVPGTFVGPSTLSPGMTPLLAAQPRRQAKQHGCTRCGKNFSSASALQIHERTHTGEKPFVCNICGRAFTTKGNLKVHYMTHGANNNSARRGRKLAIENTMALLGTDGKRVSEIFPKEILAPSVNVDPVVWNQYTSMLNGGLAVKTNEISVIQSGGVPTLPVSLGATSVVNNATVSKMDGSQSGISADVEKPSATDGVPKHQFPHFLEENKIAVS

[6] = biological target: T4, Protein cereblon/Eukaryotic peptide chain release factor GTP-binding subunit ERF3A; experiment: Molecular glue activity at CRBN/HiBiT-tagged GSPT1 (unknown origin) expressed in human GripTite 293 MSR cells assessed as induction of GSPT1 degradation incubated for 20 hrs by Nano-Glo HiBiT-Lytic reagent based luminescence plate reader analysis; format: cell-based
Cereblon/Ikaros [7] = biological target: T3, Cereblon/Ikaros; experiment: Molecular glue activity at CRBN/HiBiT-tagged IKZF1 (unknown origin) expressed in human GripTite 293 MSR cells assessed as induction of […] incubated for 20 hrs by Nano-Glo HiBiT-Lytic reagent based luminescence plate reader analysis; format: cell-based
[8] = biological target: T1, Protein cereblon/Protein Wiz; experiment: Molecular glue activity at CRBN/HiBiT-tagged WIZ (unknown origin) expressed in HEK293T cells assessed as induction of WIZ degradation incubated for 18 hrs by Nano-Glo HiBiT-Lytic reagent based luminescence plate reader analysis; format: cell-based
[9] = Intrinsic clearance in mouse liver microsomes; format: ADME, Microsome; conditions: read-out: CLH
[10] = biological target: T1, Protein cereblon/Protein Wiz; experiment: Molecular glue activity at CRBN/WIZ in human CD34-positive derived primary erythroblast assessed as induction of WIZ degradation by flow cytometric analysis; format: cell-based
Target sequence in this assay (O95785 whole entry, looked up): as the sequence (O95785 whole entry, looked up) above
Target sequence in this assay (Q96SW2 whole entry, looked up): as the sequence (Q96SW2 whole entry, looked up) above

[11] = Cmax in C57BL/6 mouse at 3 mg/kg, po; format: ADME, organism-based; conditions: in vivo
[12] = Tmax in C57BL/6 mouse at 3 mg/kg, po or 1 mg/kg, iv; format: ADME, organism-based; conditions: in vivo
[13] = Bioavailability last in C57BL/6 mouse; format: ADME, organism-based; conditions: in vivo
[14] = AUClast in C57BL/6 mouse at 3 mg/kg, po; format: ADME, organism-based; conditions: in vivo
[15] = Protein binding in human plasma; format: ADME, cell-free; conditions: read-out: PPB (converted)
[16] = Volume of distribution at steady state in C57BL/6 mouse at 1 mg/kg, iv; format: ADME, organism-based; conditions: in vivo, read-out: Vdss
[17] = biological target: T1, Protein cereblon/Protein Wiz; experiment: Molecular glue activity at CRBN/WIZ in human CD34-positive derived primary erythroblast assessed as induction fetal hemoglobin by flow cytometric analysis; format: cell-based
Target sequence in this assay (O95785 whole entry, looked up): as the sequence (O95785 whole entry, looked up) above
Target sequence in this assay (Q96SW2 whole entry, looked up): as the sequence (Q96SW2 whole entry, looked up) above

[18] = Half-life in C57BL/6 mouse at 1 mg/kg, iv; format: ADME, organism-based; conditions: in vivo
[19] = Clearance in C57BL/6 mouse at 1 mg/kg, iv; format: ADME, organism-based; conditions: in vivo
[20] = Apparent permeability across apical to basolateral side in low efflux MDCK cells assessed as drug recovery at 10 uM incubated for 2 hrs by LC-MS analysis; format: ADME, cell-based, Canis lupus familiaris; conditions: dog, read-out: Drug recovery
[21] = Protein binding in rat plasma; format: ADME, cell-free; conditions: read-out: PPB (converted)
[22] = Intrinsic clearance in human liver microsomes; format: ADME, Microsome; conditions: read-out: CLH
[23] = Apparent permeability across apical to basolateral side in low efflux MDCK cells at 10 uM incubated for 2 hrs by LC-MS analysis; format: ADME, cell-based, Canis lupus familiaris; conditions: dog
[24] = Solubility of compound in potassium phosphate buffer at pH 6.8 incubated for 16 to 24 hrs by high-throughput Agilent Rapidfire-MS/MS analysis; format: physicochemical; conditions: time 16-24 hrs
[25] = Protein binding in mouse plasma; format: ADME, cell-free; conditions: read-out: PPB (converted)
[26] = Intrinsic clearance in rat liver microsomes; format: ADME, Microsome; conditions: read-out: CLH
[27] = biological target: T1, Protein cereblon/Protein Wiz; experiment: Molecular glue activity at CRBN/WIZ in human CD34-positive derived primary erythroblast cells assessed as induction of WIZ degradation by measuring maximal efficacy measured after 24 hrs by flow cytometric analysis relative to control; format: cell-based
Target sequence in this assay (O95785 whole entry, looked up): as the sequence (O95785 whole entry, looked up) above
Target sequence in this assay (Q96SW2 whole entry, looked up): as the sequence (Q96SW2 whole entry, looked up) above

[28] = biological target: T1, Protein cereblon/Protein Wiz; experiment: In vivo molecular glue activity at CRBN/WIZ in immunocompromised naive NBSGW mouse xenografted with human CD34 positive HSPC cells assessed as fold increase in Hbf-positive cells in moCD45 negative hCD45negative CD71positive CD235A positive bone marrow cells at 0.01 to 1 mg/kg, po administered once daily for 21 days by staining based analysis; format: functional, organism-based; conditions: dose 0.01-1 mg/kg, time 21.0 day
Target sequence in this assay (O95785 whole entry, looked up): as the sequence (O95785 whole entry, looked up) above
Target sequence in this assay (Q96SW2 whole entry, looked up): as the sequence (Q96SW2 whole entry, looked up) above

[29] = biological target: T1, Protein cereblon/Protein Wiz; experiment: In vivo molecular glue activity at CRBN/WIZ in immunocompromised naive NBSGW mouse xenografted with human CD34 positive HSPC cells assessed as induction of WIZ degradation in peripheral blood human […] B cells administered orally once daily for 21 days by staining based analysis; format: functional, organism-based; conditions: route po, time 21.0 day
Target sequence in this assay (O95785 whole entry, looked up): as the sequence (O95785 whole entry, looked up) above
Target sequence in this assay (Q96SW2 whole entry, looked up): as the sequence (Q96SW2 whole entry, looked up) above

[30] = biological target: T1, Protein cereblon/Protein Wiz; experiment: In vivo molecular glue activity at CRBN/WIZ in immunocompromised naive NBSGW mouse xenografted with human CD34 positive HSPC cells assessed as induction of WIZ degradation in peripheral blood human C19-positive B cells by measuring maximal efficacy at 0.01 to 1 mg/kg, po administered once daily for 21 days by staining based analysis relative to control; format: functional, organism-based; conditions: dose 0.01-1 mg/kg, time 21.0 day
[31] = biological target: T1, Protein cereblon/Protein Wiz; experiment: Molecular glue activity at CRBN/WIZ in human CD34-positive derived primary erythroblast cells assessed as increase in fetal hemoglobin positive cells in CD71+ CD235a+ subpopulation measured after 7 days by flow cytometric analysis relative to control; format: cell-based; conditions: time 7.0 day
[32] = biological target: T1, Protein cereblon/Protein Wiz; experiment: Molecular glue activity at CRBN/WIZ in human CD34-positive derived primary erythroblast cells assessed as induction of WIZ degradation measured after 24 hrs by flow cytometric analysis; format: cell-based
[33] = biological target: Protein cereblon/Protein Wiz (Homo sapiens, UniProt O95785+Q96SW2); experiment: Molecular glue activity at CRBN/WIZ in human CD34-positive derived primary erythroblast cells assessed as increase in fetal hemoglobin positive cells in CD71+ CD235a+ subpopulation measured after 7 days by flow cytometric analysis; format: cell-based

T3 sequence (Q96SW2 whole entry): as the sequence (Q96SW2 whole entry, looked up) above
T3 sequence (Q13422 whole entry): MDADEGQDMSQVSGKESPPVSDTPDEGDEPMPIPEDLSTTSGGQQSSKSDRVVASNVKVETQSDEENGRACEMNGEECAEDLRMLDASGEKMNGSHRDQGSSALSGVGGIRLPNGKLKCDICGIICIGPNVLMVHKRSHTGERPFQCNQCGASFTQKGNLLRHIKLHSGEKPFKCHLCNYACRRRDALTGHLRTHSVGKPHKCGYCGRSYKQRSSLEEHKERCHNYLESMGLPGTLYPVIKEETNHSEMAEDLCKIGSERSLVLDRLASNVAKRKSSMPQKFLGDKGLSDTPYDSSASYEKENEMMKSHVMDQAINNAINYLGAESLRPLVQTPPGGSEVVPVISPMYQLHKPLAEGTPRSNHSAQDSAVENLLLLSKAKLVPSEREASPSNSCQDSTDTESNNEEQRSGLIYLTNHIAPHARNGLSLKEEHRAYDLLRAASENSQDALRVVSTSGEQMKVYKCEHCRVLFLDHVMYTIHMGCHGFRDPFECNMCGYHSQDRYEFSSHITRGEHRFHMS

| Activity [1] [%] | Activity [2] [%] | Activity (Cereblon/Ikaros [3]) [%] | Activity [4] [%] | Compound | DC50 [5] [µM] | DC50 [6] [µM] | DC50 (Cereblon/Ikaros [7]) [µM] | DC50 [8] [µM] | microsomal CLint [9] [µL/min/mg] | Cmax [11] [nM] | Tmax [12] [h] | bioavailability [13] [%] | AUC(0-t) [14] [µM·h] | fraction unbound [15] | Vd [16] [L/kg] | half-life [18] [h] | clearance [19] [mL/min/kg] | recovery at 2 h, 10 µM [20] [%] | fraction unbound [21] | microsomal CLint [22] [µL/min/mg] | other results |
| --- | --- | --- | --- | --- | --- | --- | --- | --- | --- | --- | --- | --- | --- | --- | --- | --- | --- | --- | --- | --- | --- |
| 78 | 15 | < 10 | < 10 | CCN1C[C@H](C)C[C@@H](Oc2ccc3c(c2)CN(C2CCC(=O)NC2=O)C3=O)C1 (mixture of isomers) [listing 1 of 2 here] |  |  |  |  |  |  |  |  |  |  |  |  |  |  |  |  |  |
|  |  |  |  | CCN1C[C@H](C)C[C@@H](Oc2ccc3c(c2)CN(C2CCC(=O)NC2=O)C3=O)C1 (mixture of isomers) [listing 2 of 2 here] | > 50 | > 50 | > 50 | 0.013 |  |  |  |  |  |  |  |  |  |  |  |  |  |
| 93 | 58 | < 11 | < 11 | C[C@@H](Oc1ccc2c(c1)CN(C1CCC(=O)NC1=O)C2=O)[C@H]1CCCCN1C (stereo not given in full) |  |  |  |  | < 25 | 24 | 3 | 2.7 | 0.115 | 0.69 | 2.9 | 1.9 | 28 | 66 | 0.58 | < 25 | Activity [10]: Active; Activity [17]: Active; Papp A→B at 2 h, 10 µM [23]: 0.37 ×10⁻⁶ cm/s; solubility [24]: 640 µM (≈ 247 µg/mL); fraction unbound [25]: > 0.8; microsomal CLint [26]: < 25 µL/min/mg |
| 87 | 26 | < 10 | < 10 | CCN1C[C@H](C)C[C@@H](Oc2ccc3c(c2)CN(C2CCC(=O)NC2=O)C3=O)C1 (stereo in doubt; 10) |  |  |  |  |  |  |  |  |  |  |  |  |  |  |  |  | Emax [27]: 84%; fold change (FC) [28]: 5; Activity [29]: Dose-dependent-effect; Emax [30]: 60%; Activity [31]: 40% |

| Compound | Activity [1] [%] | Activity [2] [%] | Activity (Cereblon/Ikaros [3]) [%] | Activity [4] [%] | DC50 [5] [µM] | DC50 [6] [µM] | DC50 (Cereblon/Ikaros [7]) [µM] | DC50 [8] [µM] | microsomal CLint [9] [µL/min/mg] | Cmax [11] [nM] | Tmax [12] [h] | bioavailability [13] [%] | AUC(0-t) [14] [µM·h] | fraction unbound [15] | Vd [16] [L/kg] | half-life [18] [h] | clearance [19] [mL/min/kg] | recovery at 2 h, 10 µM [20] [%] | fraction unbound [21] | microsomal CLint [22] [µL/min/mg] | other results |
| --- | --- | --- | --- | --- | --- | --- | --- | --- | --- | --- | --- | --- | --- | --- | --- | --- | --- | --- | --- | --- | --- |
| CCN1C[C@H](Oc2ccc3c(c2)CN(C2CCC(=O)NC2=O)C3=O)CC[C@H]1C (stereo not given in full) | 60 | 27 | < 10 | < 10 | > 50 | > 50 | > 50 | 0.105 |  |  |  |  |  |  |  |  |  |  |  |  |  |
| CCN1C[C@H](Oc2ccc3c(c2)CN(C2CCC(=O)NC2=O)C3=O)CC[C@@H]1C (stereo not given in full) | 88 | 32 | 10 | < 10 | > 50 | > 50 | > 50 | 0.003 | < 25 | 118 | 1 | 8.5 | 0.377 | 0.72 | 4.4 | 3.2 | 29 | 75 | 0.71 | < 25 | Emax [27]: 84%; DC50 [32]: 0.003 µM; EC50 [33]: 0.078 µM; Activity [31]: 36%; Papp A→B at 2 h, 10 µM [23]: 0.3 ×10⁻⁶ cm/s; solubility [24]: 480 µM (≈ 185 µg/mL); fraction unbound [25]: 0.77; microsomal CLint [26]: < 25 µL/min/mg |
